The values that follow come from patent US3996381A, “Amphetamine derivatives” (Astra Lakemedel Aktiebolag, priority 1973, dated 1976).

SMILES strings stand for the structures. A value given as a limit tells only on which side of the number the result lay.

Common to all, as to type: in vivo
In test [1] the test system is syndromes produced by 5-hydroxytryptophan (5-HTP). Put plainly: 5-HTP response potentiation test. The note with it: Mus musculus, ip; mice; before dl-5-HTP 90 mg/kg i.v. From the text: It is not possible by experimental means to induce depressions in laboratory animals. In order to evaluate a possible anti depressive effect on new substances biochemical-pharmacological test methods must be resorted to. One such method, which seems to give a good indication of the potential anti depressive effects of the test substances, is described in Europ. J. Pharmacol. 17, 107, 1972. This method involves the measurement of the potentiation of the syndromes produced by 5-hydroxytryptophan (5-HTP) in a laboratory animal.
5-HTP response potantiation test
Inhibition of the uptake of 5-HT potentiates the effects of administered 5-hydroxytryptophan (5-HTP) probably by increasing the amount of 5-HT at the receptor. Three mice are given the test drugs 1 hour (or 4, 24 hours) before dl-5-HTP, 90 mg/kg i.v. 5-HTP alone gives only a weak behavioural syndrome but in pretreated mice there is seen a characteristic behavioural syndrome, which comes within five minutes: tremor, lordosis, abduction of the hindlegs, head-twitches.
The absence or presence of respective syndrome is scored in groups of ten mice. The compound was administered in at least five doses and the quantal responses were analysed by probit analysis and ED50 determined according to the method of Litchfield and Wilcoxon.

Test [2] has as its system aggressive behaviour in mice. Put plainly: Aggressive behaviour in isolated male mice (antiaggressivity). As to conditions: Mus musculus, ip, dose which reduces aggressiveness score by 50%, read-out: Antiaggressive behaviour in mice ED50. Here is the method:
Potential anxiolytic activity is tested by measuring the antiaggressivity in isolated mice after administration of the test substance. In this test not amphetamine but Valium -- a well-known anxiolytic substance -- is used as a reference.
Aggressive behaviour in mice
Male mice kept isolated for 3 weeks or longer develop an aggressive behavior when caged together. The method used follows that of Valzelli et al. (Europ. J. Pharmacol. 2, 144, 1967), with the exception that 2 mice were tested on each other. The aggressiveness was scored during a 5 min test according to the following schedule:
0 the animals show no interest in each other except occasional nosing
25 frequent vigorous nosing and tail rattling, the animals assume a fighting position and occassionally attack each other -- no more than 3-4 times in the 5 min period
50 tail rattling, powerful attacks -- no more than 10 times in the test period
75 the animals follow their partners, attacking and biting for most of the time
100 attacks over the entire period.
The animals were used for several experiments but with intervals of at least one week. Groups of 10 mice were used.
ED50 is the dose which reduces the aggressiveness score by 50%.

The test system of test [3] is motor activity in mice. Put plainly: Motor activity in mice (exploratory activity in locomotion cage). Details: key to Motor Activity (+ = increase, - = decrease, 0 = no effect): + = increase; - = decrease; 0 = no effect. As to conditions: for Motor Activity (+ = increase, - = decrease, 0 = no effect): recorded for ten minutes one hour after administration, compared to control groups. Here is the method:
The lack of euphoric effects, that is lack of central stimulatory activity, is tested by measuring the motor activity in mice after administration of the test substance.
The exploratory activity of mice was recorded in a locomotion cage in which the movements were counted each time the animals cross-circuits an electrical current in the bottom plate. The activity was recorded for ten minutes one hour after the administration of the drug. The animals were tested individually. Groups of six mice were used and the mice were only used once. The activity was expressed in per cent of the activity of control groups ran simultaneously. The compounds were administered in at least four doses. The increase (+) or decrease (-) of the activity compared to control groups was determined from log dose response curves.

Regarding `CCN(C)c1ccc(CC(C)N)cc1` (centres unmarked) [H H C2 H5 CH3 H CH3], the ED50 (as a rule, the dose that gives a 50% effect, or the effect in half of the subjects) in test [1] was 0.7 mg/kg; in test [2], below 5 mg/kg.

For `CCC(N)Cc1ccc(N(C)C)cc1Cl` (centres unmarked) [H 2-Cl CH3 CH3 H C2 H5], the ED50 in test [1] was found to be 0.25 mg/kg. Besides, the “Motor Activity (+ = increase, - = decrease, 0 = no effect)” value in test [3] is recorded as 0.

In the case of `Cc1cc(N(C)C)ccc1CC(C)N.Cl.Cl` (centres unmarked) [H 2-CH3 CH3 CH3 H CH3], the results for the ED50 in test [1] and in test [2] were 0.6 mg/kg and 2.5 to 5 mg/kg, respectively. The “Motor Activity (+ = increase, - = decrease, 0 = no effect)” value in test [3] is “-”.

For the compound `CC(N)Cc1ccc(N(C)C)c(Br)c1.Cl.Cl` (centres unmarked) [H 3-Br CH3 CH3 H CH3], the ED50 was 1 mg/kg in test [1] and above 5 mg/kg in test [2].

On to `CC(N)Cc1ccc(N(C)C)cc1Br.Cl.Cl` (centres unmarked) [H 2-Br CH3 CH3 H CH3], for which the ED50 in test [1] stood at 0.1 mg/kg.

With `CC(N)Cc1c(Cl)cc(N(C)C)cc1Cl.Cl.Cl` (centres unmarked) [2-Cl 6-Cl CH3 CH3 H CH3], the ED50 was 0.1 mg/kg in test [1] and above 5 mg/kg in test [2]. Besides, in test [3], the “Motor Activity (+ = increase, - = decrease, 0 = no effect)” value is listed as “-”.

Turning to `CCNc1ccc(CC(C)N)cc1.Cl.Cl` (centres unmarked) [H H C2 H5 H H CH3], the ED50 in test [1] was found to be 1 mg/kg; in test [2], 1.25 mg/kg.

For the compound `CC(N)Cc1ccc(N(C)C)cc1Cl.Cl.Cl` (centres unmarked) [H 2-Cl CH3 CH3 H CH3], the ED50 was 0.25 mg/kg in test [1] and 2.5 to 5 mg/kg in test [2]. In test [3], the “Motor Activity (+ = increase, - = decrease, 0 = no effect)” value was “-”.

With `CC(N)Cc1ccccc1` (centres unmarked) [Amphetamine], the ED50 in test [1] is above 5 mg/kg. For the same compound, the “central stimulation (in words)” value in test [3] was “pronounced”.

Regarding `CN(C)c1ccc(CC(C)(C)N)cc1.Cl.Cl` [H H CH3 CH3 CH3 CH3], in test [1], the ED50 came out at 2.5 mg/kg. Also, the “Motor Activity (+ = increase, - = decrease, 0 = no effect)” value in test [3] stood at 0.

For the compound `CC(N)Cc1ccc(Cl)cc1` (centres unmarked) [p-Chloroamphetamine, reference compound], the ED50 worked out at 0.8 mg/kg in test [1] and 0.3 mg/kg in test [2]. In addition, the “central stimulation (in words)” value in test [3] was “pronounced”.

`CC(N)Cc1ccc2c(c1)CCCN2C.Cl.Cl` (centres unmarked) [H H CH3 (CH2)3 H CH3, 6-(2-AMINOPROPYL)-1-METHYL-1, 2, 3, 4-TETRAHYDROQUINOLINE DIHYDROCHLORIDE]: the ED50 was 1.5 mg/kg in test [1] and above 5 mg/kg in test [2].

For the compound `CCN(CC)c1ccc(CC(C)N)cc1` (centres unmarked) [H H C2 H5 C2 H5 H CH3], the ED50 in test [1] was 2 mg/kg; in test [2], 5 to 10 mg/kg. Further, the “Motor Activity (+ = increase, - = decrease, 0 = no effect)” value in test [3] was “-”.

Regarding `CC(N)Cc1ccc(N)cc1` (centres unmarked) [p-Aminoamphetamine, reference compound], the ED50 in test [1] came to 11.5 mg/kg.

For `CN1C(=O)CN=C(c2ccccc2)c2cc(Cl)ccc21` [Valium, reference compound], the ED50 in test [2] was determined as 2.5 mg/kg.
